Measurements published in article PMC6539525, “Design, Synthesis, and Mechanism of Dihydroartemisinin–Coumarin Hybrids as Potential Anti-Neuroinflammatory Agents” (Molecules, 2019).
Like-named read-outs stand apart in the source and are kept apart here.

Tests used:
A549 cells = test: MTT cytotoxicity in A549 cells; type: cell-based; conditions: Homo sapiens
In short: (§1)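 Standard MTT assay: cells seeded 24 h, treated with compounds at 6.25–100 μM in triplicate, then grown for 96 h total. Run under normoxia (air throughout) or hypoxia (95% N2 for 24 h, then 72 h normoxia). MTT added for 4 h, formazan dissolved in DMSO, absorbance read at 570 nm.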

[1] = test system: TNF-α release of LPS-induced N9 cells; test: TNF-α release of LPS-induced N9 cells (cytokine kit); type: cell-based, murine; conditions: compound 1 μM, LPS 1 μg/mL, 48 h
Procedure: (§2) N9 cells, which were in the logarithmic phase, were incubated for 24 h by adherent culture. Subsequently, the medium was changed to new one without serum. The cells were treated with different concentration of tested compounds. After specific time in the LPS condition, the supernatants were collected and analyzed.
(§3) The secreted level of TNF-α and IL-6 was measured using mouse Th1/Th2/Th17 Cytokine Kit, purchased from BD Pharningen. The data was analyzed by FCAP Array v3.0. IL-2, IL-4, IL-10, IL-17A, and IFN-γ were not detected in the experiment.

MDA-MB-231 cells = test: MTT cytotoxicity in MDA-MB-231 cells; type: cell-based; conditions: Homo sapiens
In short: as §1

HT-29 cells = test: MTT cytotoxicity in HT-29 cells; type: cell-based, Human; conditions: for IC50: Homo sapiens, MTT
[2] = NO capture analysis with sodium nitroprusside (Griess); conditions: 0.01-10 μM compound, 0.5 mM SNP solution, 1 h, room temperature
Procedure: Sodium nitroprusside (SNP) is a NO donor. In this experiment, the reason of the DCH reducing NO level was preliminary explored. […] That means the main reason of the NO level reduction is due to species-specific effect.
SNP was dissolved in PBS to prepare the 100 mM stock solution. In this experiment, SNP solution of […] was added to 975 μL PBS solution which included different concentration of tested compounds. After 60 min under r.t. condition, the concentration of NO2^− was tested using Griess assay.
6l (0.01 μM, 0.1 μM, 1 μM, and 10 μM) or 5n (0.01 μM, 0.1 μM, 1 μM, and 10 μM) was added to a concentration of 0.5 mM SNP solution. […] Data were shown as mean ± SD. *** p < 0.001 compared with control group.

HCT-116 cells = test: MTT cytotoxicity in HCT-116 cells; type: cell-based; conditions: Homo sapiens
In short: as §1

[3] = MTT cytotoxicity in N9 cells; type: cell-based, murine; conditions: mouse, N9 microglial cells, cytotoxic activity
In short: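 N9 microglial cells seeded at 1.5–3 × 10^4 cells/mL, grown 24 h, then exposed to compounds at 6.25–100 μM in triplicate for 96 h. Viability by MTT (4 h), formazan dissolved in DMSO, absorbance at 570 nm; MTT-IC20 derived.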

[4] = test system: IL-6 release of LPS-induced N9 cells; test: IL-6 release of LPS-induced N9 cells (cytokine kit); type: cell-based, murine; conditions: compound 1 μM, LPS 1 μg/mL, 48 h
Procedure: as §2, §3

[5] = test system: NO release of LPS-induced microglial N9 cells; test: Inhibition of NO release in LPS-induced N9 cells (Griess); type: cell-based, murine; conditions: Mus musculus, 1 μg/mL LPS for 48 h, NO level in medium
In short: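 Log-phase N9 microglia were grown adherent for 24 h, switched to serum-free medium, then given test compounds under LPS stimulation. Nitrite in supernatant was quantified by Griess reaction at 540 nm; MTT-IC20 was determined to exclude cytotoxic effects.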

`Cc1ccc2c(OCc3cn(CCO[C@H]4O[C@@H]5O[C@@]6(C)CC[C@H]7[C@H](C)CC[C@@H]([C@H]4C)[C@@]57OO6)nn3)cc(=O)oc2c1C` [5n] gave an IC50 (A549 cells; A549, hypoxia 24 h then normoxia 72 h, read-out: IC50 A549 Hypoxia) of 2.44 µM, an IC50 (A549 cells; A549, normoxia 96 h, read-out: IC50 A549 Normoxia) of 2.11 µM and an inhibition at 1 µM ([1]; Mus musculus) of 22%. The TNF-α [1] was 3508.08 ± 368.72 pg/mL, the IC50 (MDA-MB-231 cells; MDA-MB-231, hypoxia 24 h then normoxia 72 h, read-out: IC50 MDA-MB-231 Hypoxia) was 11.7 µM and the IC50 (MDA-MB-231 cells; MDA-MB-231, normoxia 96 h, read-out: IC50 MDA-MB-231 Normoxia) was 11 µM. For the same compound, the “cell viability of HT-29 cells” value (HT-29 cells; 6.25-100 μM for 48 h, MTT staining) was “decreased in a dose-dependent manner”, the IC50 (HT-29 cells; HT-29, hypoxia 24 h then normoxia 72 h, read-out: IC50 HT-29 Hypoxia) was 8.9 µM and the IC50 (HT-29 cells; HT-29, normoxia 96 h, read-out: IC50 HT-29 Normoxia) was 10.2 µM. For the same compound, the melting point was 91 to 93 °C, the “NO radical scavenging activity” value [2] was “had NO radical scavenging activity” and the IC50 (HCT-116 cells; HCT-116, hypoxia 24 h then normoxia 72 h, read-out: IC50 HCT-116 Hypoxia) was 32.9 µM. It also gave an IC50 (HCT-116 cells; HCT-116, normoxia 96 h, read-out: IC50 HCT-116 Normoxia) of 25.6 µM, an IC20 [3] of 2.44 µM and an inhibition at 1 µM ([4]; Mus musculus) of 43.1%. For the same compound, the IL-6 [4] was 656.75 ± 79.49 pg/mL and the IC50 [5] was 0.22 µM.
